Patent publication US6214374A, “Compositions, methods and devices for the transdermal delivery of drugs” (priority 1996, dated 2001)
Like-named read-outs stand apart in the source and are kept apart here.

How the values were obtained:
[1] = Progesterone penetration through a dialysis membrane; assay type: in vitro ADME
Experimental: Tritium-labeled progesterone was obtained from NEN-DuPont (Wilmington, Del.), with the label at ring positions 1, 2, 6, and 7. It was incorporated in the test compositions in the range 100 to 500 DPM (Disintegration Per Minute) per microgram of progesterone. The labeled progesterone was incorporated at the pre-polymerization stage, i.e., just as water is added to form the hydrogel polymer. Aliquots of the gelling mixtures were added to small amounts of tritiated progesterone in scintillation vials (after the solvent had been evaporated), and stirred briskly with a small spatula. The vials were then tightly capped and stored at room temperature. Milligram portions of this mixture were then taken from widely-spaced sites from within the vials, rapidly weighed, and dispersed in scintillation cocktail for determination of specific activities.
Transdermal penetration was performed in a single-chamber, solvent-replacement Diffusion Cell, held vertically and inverted (FIG. 13). Half-inch diameter discs of skin to which nylon washers had been cemented with cyanoacrylate were used. The available diffusional area of each skin disc enclosed by the nylon washer was 0.495 cm^2. […]
Thus, penetration of progesterone through a dialysis membrane, which was assumed to be more permeable than the skin, was measured to see how much progesterone could accumulate in the receptor of the diffusion cells. […]

[2] = Intradermal penetration of progesterone by autoradiography
Excerpt: Therefore, an alternative procedure was used to acquire skin surface biopsies (Marks and Dawber, 1971, Brit. J. Dermatol. 85:117-123). Surface biopsies consist of a sheet of the top 2-3 layers of the stratum corneum, which retain vellus hairs on the underside, along with fragments of the pilosebaceous ducts known as "follicular casts" (Lavker and Leyden, 1979, "Lamellar Inclusions in Follicular Horny Cells: A New Aspect of Abnormal Keratinization," J. Ultrastruct. Res. 69: 362-370). These samples are produced by application of a drop of cyanoacrylate adhesive on a microscope slide to the surface of the skin, and after the adhesive sets, the slide with adhering tissue is carefully peeled off.
Discs of skin were prepared as described in "Methods", for measurement of intradermal penetration, but using much larger washers to provide test sites of about 10 cm2 in area. A test formula containing 20% progesterone (Sample Z) was applied, and uptake into the skin was allowed to proceed for one hour, and for 20 hours. Surface residue was removed at the indicated times, using the rinse/wipe procedure described. Skin surface biopsies were taken from 1 & 20-Hr skin discs, and coated with photographic emulsion (Illford K-2 emulsion, Illford, London), then allowed to develop for 14 days. Rinsing and fixing were done as prescribed by the manufacturer.

[3] = in vivo; cited from earlier work
[4] = oral, vaginal or rectal; cited from earlier work
[5] = assay type: in vitro ADME, human
Experimental: Transdermal penetration was performed in a single-chamber, solvent-replacement Diffusion Cell, held vertically and inverted (FIG. 13). Half-inch diameter discs of skin to which nylon washers had been cemented with cyanoacrylate were used. The available diffusional area of each skin disc enclosed by the nylon washer was 0.495 cm^2. The cell was assembled from parts of a commercial PVC coupling manufactured by Genova Products, Inc., Davison, Mich. The body of the coupling serves as the receptor chamber. The skin disc (5), kept flat by the nylon washer (6) cemented to its surface, is seated in the bottom end of the chamber, dermal side in contact with the receptor fluid (8). After test material is applied to the skin surface, an O-ring (4) and a flanged PVC washer (2) coated with aluminum foil (3) are positioned under the nylon washer on the skin, and a retaining nut (1) is carefully tightened under all. A small, teflon-covered magnetic stirring button (7) and the receptor fluid are introduced, after which the top end of the coupling is stoppered with another foil-coated flanged washer (9). After assembly, the cell is held in a rack on a magnetic stirrer, in a 32° C. incubator. The magnetic stirring button is used to stir the receptor fluid in the inverted cell, and this button spins in direct contact with the dermal side of the skin. […]

[6] = cited from earlier work
[7] = combination of progesterone and estrogen; cited from earlier work
[8] = cited from earlier work; remark: listed apart in the source
[9] = Transdermal penetration of progesterone: oleic acid, myristic acid and butylurea enhancers; assay type: in vitro ADME, human
Excerpt: Excised full-thickness human skin was obtained from elective surgery, (e.g., breast reductions) or occasionally, from amputated legs. The tissue was stored in plastic containers at refrigerator temperature until use, at which time the subcutaneous fat and connective tissue were carefully trimmed off. Skin specimen thickness was in the range 1.5-2.0 mm, with characteristic histological features preserved.
Tritium-labeled progesterone was obtained from NEN-DuPont (Wilmington, Del.), with the label at ring positions 1, 2, 6, and 7. It was incorporated in the test compositions in the range 100 to 500 DPM (Disintegration Per Minute) per microgram of progesterone. The labeled progesterone was incorporated at the pre-polymerization stage, i.e., just as water is added to form the hydrogel polymer. Aliquots of the gelling mixtures were added to small amounts of tritiated progesterone in scintillation vials (after the solvent had been evaporated), and stirred briskly with a small spatula. The vials were then tightly capped and stored at room temperature. […]
Rates of transdermal penetration of progesterone were determined for three samples: A-1, A-2, and A-3. […]
Some of the data from these determinations are plotted in FIG. 16, to illustrate how the rates were determined. […]

SMILES | lag time, dialysis membrane [1] | rate of penetration through dialysis membrane ([1]; about 1.5 hours) | accumulation in follicles vs stratum corneum, autoradiography [2] | distribution of progesterone in the skin, autoradiography [2] | distribution depth within the follicle, autoradiography ([2]; 0.2 mm-long follicular fragment) | amount of progesterone in the breast tissue [3] | increase in progesterone concentration in breast tissue [3] | half life in the body [4] | increase of rate after removal of the epidermis [5] | rate of transdermal penetration in vitro ([6]; 2-pyrrolidone enhancer) | rate of transdermal penetration in vitro ([6]; N-methylformamide enhancer) | rate of transdermal penetration in vitro ([6]; no enhancer, acetone solution) | mean serum level giving an optimal effect in the treatment of menopause [7] | amount penetrated in a 24-hour period ([8]; 24 hours, thin film in vivo, Guy et al.) | penetration rate reported by Guy et al. ([8]; human skin in vivo) | efficacy in promoting the penetration of progesterone through the skin [9]
CC(=O)[C@H]1CC[C@H]2[C@@H]3CCC4=CC(=O)CC[C@]4(C)[C@H]3CC[C@]12C [progesterone, pregn-4-ene-3,20-dione] | no lag time | about 30 μg/cm^2 /Hr | Accumulation in the follicles appeared to be faster than in the stratum corneum | preferential accumulation of progesterone in the pilosebaceous follicles | distributed uniformly to this depth within the lipid-rich interior of the follicle | high amounts | five-fold | about 2.2 hours | about 2 fold | 11.4 (+/-4.6) μg/cm^2 /hour | 12.4 (+/-4.4) μg/cm^2 /hour | 0.477 μg/cm^2 /hour | 2 ng/mL | about 1.2 μg/cm^2 | 1.2 μg/cm^2 /day | 
CCCCNC(N)=O [n-butylurea, butylurea] |  |  |  |  |  |  |  |  |  |  |  |  |  |  |  | clearly the most efficacious of the three
